According to patent US8841348B2, “Anti-inflammatory formulation” (AKL Inflammatory Limited, priority 2005, dated 2014):

Test: Applicant's clinical observation of paeonol and apocynin alone versus together
Assay type: in vivo
Conditions: used on their own
Description: The applicant has noted that the effect of the combination of paeonol and apocynin together is rather better than would have been expected from studies using either of these alone.

Row | Compound | anti-inflammatory and/or analgesic activity
1 | COc1ccc(C(C)=O)c(O)c1 [paeonol, 2-hydroxy-4-methoxy-acetophenone] | did not show anti-inflammatory and/or analgesic activity that could be clinically observed
2 | COc1cc(C(C)=O)ccc1O [apocynin, 4-hydroxy-3-methoxyacetophenone] | did not show anti-inflammatory and/or analgesic activity that could be clinically observed
